Consider 3 molecules from PMC2788660 (Journal of medicinal chemistry, 2009).

Assay [1] addresses T1, HDAC6 (Homo sapiens, UniProt Q9UBN7).
T1 sequence (Q9UBN7 1-1215): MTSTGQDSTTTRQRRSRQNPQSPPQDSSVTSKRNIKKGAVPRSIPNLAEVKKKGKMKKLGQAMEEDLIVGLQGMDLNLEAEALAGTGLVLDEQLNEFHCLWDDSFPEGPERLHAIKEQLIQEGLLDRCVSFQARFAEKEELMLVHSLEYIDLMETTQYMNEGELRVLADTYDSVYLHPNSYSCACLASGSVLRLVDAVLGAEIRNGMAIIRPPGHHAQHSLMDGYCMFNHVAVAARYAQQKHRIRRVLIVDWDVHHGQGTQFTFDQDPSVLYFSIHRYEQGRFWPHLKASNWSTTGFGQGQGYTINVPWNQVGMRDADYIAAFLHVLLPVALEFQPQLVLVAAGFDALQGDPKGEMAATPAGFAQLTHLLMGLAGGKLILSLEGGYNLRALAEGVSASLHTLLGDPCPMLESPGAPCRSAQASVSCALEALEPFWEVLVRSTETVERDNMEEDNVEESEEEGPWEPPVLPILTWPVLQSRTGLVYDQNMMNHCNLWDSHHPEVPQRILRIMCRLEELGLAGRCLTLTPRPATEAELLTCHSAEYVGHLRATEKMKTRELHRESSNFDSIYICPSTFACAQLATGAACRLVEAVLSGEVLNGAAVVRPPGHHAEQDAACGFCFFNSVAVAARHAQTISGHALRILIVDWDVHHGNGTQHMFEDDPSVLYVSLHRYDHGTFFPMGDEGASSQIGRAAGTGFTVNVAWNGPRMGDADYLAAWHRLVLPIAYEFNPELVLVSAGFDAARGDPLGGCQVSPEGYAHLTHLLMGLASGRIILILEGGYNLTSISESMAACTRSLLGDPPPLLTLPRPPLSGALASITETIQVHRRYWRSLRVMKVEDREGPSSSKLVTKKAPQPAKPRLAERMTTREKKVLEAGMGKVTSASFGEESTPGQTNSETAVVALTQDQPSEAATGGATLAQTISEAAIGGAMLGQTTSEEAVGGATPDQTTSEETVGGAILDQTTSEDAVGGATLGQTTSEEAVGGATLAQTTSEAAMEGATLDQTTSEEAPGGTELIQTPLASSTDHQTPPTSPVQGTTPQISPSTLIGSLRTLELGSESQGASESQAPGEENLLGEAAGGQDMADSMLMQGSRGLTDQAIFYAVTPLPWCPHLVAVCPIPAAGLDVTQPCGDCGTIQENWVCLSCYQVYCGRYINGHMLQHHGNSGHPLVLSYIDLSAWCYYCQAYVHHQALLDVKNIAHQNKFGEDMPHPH

The target in assay [2] is T2, HDAC8 (Homo sapiens, UniProt Q9BY41).
T2 sequence (Q9BY41 1-377): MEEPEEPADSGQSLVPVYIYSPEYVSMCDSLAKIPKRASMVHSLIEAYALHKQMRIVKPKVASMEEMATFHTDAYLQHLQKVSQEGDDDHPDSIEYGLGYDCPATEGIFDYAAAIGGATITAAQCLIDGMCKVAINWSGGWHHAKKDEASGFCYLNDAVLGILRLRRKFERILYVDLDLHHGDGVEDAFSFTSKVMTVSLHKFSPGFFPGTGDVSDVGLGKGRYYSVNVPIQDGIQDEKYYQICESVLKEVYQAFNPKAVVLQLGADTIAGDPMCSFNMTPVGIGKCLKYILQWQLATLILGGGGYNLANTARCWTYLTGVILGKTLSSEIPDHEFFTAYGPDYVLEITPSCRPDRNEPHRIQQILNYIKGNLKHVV
The conditions noted are these: relative to 3a.

Assay [3] addresses HDAC1 (Homo sapiens, UniProt Q13547). The conditions noted are these: relative to 3a.

Each structure is given as a SMILES string. Square brackets hold non-standard residues; d marks the D form. Peptide text beside a SMILES is read from it. * marks the point of attachment. 1Nal = N[C@@H](Cc1cccc2ccccc12)C(=O)O; Asu = N[C@@H](CCCCCC(=O)O)C(=O)O; β3hL = CC(C)C[C@H](N)CC(=O)O; CH2CH2COOH = O=C(O)CC*

Chain of HDAC1 (Q13547 whole entry): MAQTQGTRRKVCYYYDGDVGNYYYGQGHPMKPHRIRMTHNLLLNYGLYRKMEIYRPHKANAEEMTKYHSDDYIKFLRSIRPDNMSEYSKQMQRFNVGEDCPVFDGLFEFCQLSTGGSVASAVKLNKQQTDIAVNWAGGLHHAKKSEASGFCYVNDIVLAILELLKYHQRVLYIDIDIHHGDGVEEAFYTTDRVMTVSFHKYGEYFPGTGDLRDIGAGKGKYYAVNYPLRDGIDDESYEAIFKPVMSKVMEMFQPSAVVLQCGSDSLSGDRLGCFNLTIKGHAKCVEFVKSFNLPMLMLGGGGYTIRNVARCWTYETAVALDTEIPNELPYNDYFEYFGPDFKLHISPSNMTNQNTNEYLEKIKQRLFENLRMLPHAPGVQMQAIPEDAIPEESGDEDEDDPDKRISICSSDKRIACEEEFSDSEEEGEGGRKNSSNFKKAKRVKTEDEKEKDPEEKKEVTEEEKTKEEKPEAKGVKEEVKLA

As to `CC(C)C[C@H]1CC(=O)N[C@@H](CCCNC(=N)N)C(=O)N[C@@H](CCCCCC(=O)O)C(=O)N[C@@H](Cc2cccc3ccccc23)C(=O)N1` [compound 17, c[Asu-Nal-β^3Leu-Arg]] (cyclo([Asu][1Nal][β3hL]R); ring closure inferred), the “fold more potent against HDAC6 compared to Ala–aa4 analog (8b)” value in assay [1] was 3–4 fold. For the molecule `CC(C)C[C@H]1CC(=O)N[C@@H](C)C(=O)N[C@@H](CSCCC(=O)O)C(=O)N[C@@H](Cc2c[nH]c3ccccc23)C(=O)N1` [4c] (cyclo(C(CH2CH2COOH)W[β3hL]A); ring closure inferred), the “decrease in potency against HDAC8, 3a vs. 4c” value in assay [2] was ~ 3 fold. In assay [3], the “decrease in potency against HDAC1, 3a vs. 4c” value was ~ 40 fold. With `CCC(=O)CCCCC[C@@H]1NC(=O)[C@H]2CCCCN2C(=O)[C@H]([C@@H](C)CC)NC(=O)[C@H](Cc2cn(OC)c3ccccc23)NC1=O` [1a, apicidin, reference compound], in assay [1], the “HDAC6 inhibition (in words)” value is recorded as “did not inhibit HDAC6 in the concentration range tested”.
